In patent publication EP4603105A1, “PHARMACEUTICAL COMPOSITION CONTAINING CYCLIC COMPOUND HAVING SELECTIVE KRAS INHIBITORY EFFECT AGAINST HRAS AND NRAS” (CHUGAI SEIYAKU KABUSHIKI KAISHA, priority 2022, dated 2024):
pIC50: −log10 of the molar value. *1 amine or outer side, *2 acyl side, *3 side chain or, on linkers, in order; H or OH if unused. Where a SMILES comes first, the peptide text is derived from it. Bridges are numbered along the chain shown (N, C = ends). [ ]: non-standard residue; d: D form. The star is where a group is joined. hPhe(3-Cl-4-CF3) = N[C@@H](CCc1ccc(C(F)(F)F)c(Cl)c1)C(=O)O; NPrPhe(4-CF3) = CCCN[C@@H](Cc1ccc(C(F)(F)F)cc1)C(=O)O; X13 = CCCN([C@@H](COC1CCC1)C(=O)[*:2])[*:1]; NMeGly(cPent) = CN[C@H](C(=O)O)C1CCCC1; Pro(4,4-F2) = O=C(O)[C@@H]1CC(F)(F)CN1; Hyp = O=C(O)[C@@H]1C[C@@H](O)CN1; NMeD = CN[C@@H](CC(=O)O)C(=O)O; NMeL = CN[C@@H](CC(C)C)C(=O)O; Morpholide = C1CN(*)CCO1; Ac5c = NC1(C(=O)O)CCCC1; Ac4c = NC1(C(=O)O)CCC1; NEtG = CCNCC(=O)O; Sar = CNCC(=O)O

How the values were obtained:
[1] = test system: human lung cancer strain NCI-H441; format: cell-based
Outline: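 Step one: dispense the test compound in serial DMSO dilutions. Step three: add the reagent and measure […].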

[2] = target: HRAS wild-type protein (Homo sapiens, UniProt P01112); assay: Binding to HRAS by surface plasmon resonance (SPR), KD and KD ratio to KRAS
Chain of HRAS wild-type protein (P01112 whole entry): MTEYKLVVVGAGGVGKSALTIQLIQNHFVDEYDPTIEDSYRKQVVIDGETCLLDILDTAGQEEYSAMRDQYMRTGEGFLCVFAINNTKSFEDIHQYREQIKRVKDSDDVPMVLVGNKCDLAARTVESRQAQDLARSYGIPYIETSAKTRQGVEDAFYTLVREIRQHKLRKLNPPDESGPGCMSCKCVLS
Outline: (§1)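 Biotinylated GDP-bound RAS was captured at about 100–300 RU. Running buffer: HBS pH 7.4, 10 mM MgCl2, 10 µM GDP, 1 mM DTT, 0.01% Tween 20, 4% DMSO.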

[3] = target: GDP-bound NRAS wild-type protein (Homo sapiens, UniProt P01111); assay: Binding to NRAS by surface plasmon resonance (SPR), KD and KD ratio to KRAS
Chain of GDP-bound NRAS wild-type protein (P01111 whole entry): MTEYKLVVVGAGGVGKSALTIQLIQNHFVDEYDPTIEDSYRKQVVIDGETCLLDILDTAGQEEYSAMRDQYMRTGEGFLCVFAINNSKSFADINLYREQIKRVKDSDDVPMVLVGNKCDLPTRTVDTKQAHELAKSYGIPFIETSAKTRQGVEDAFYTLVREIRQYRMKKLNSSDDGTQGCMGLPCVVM
Outline: as §1

[4] = ratio of KD value for HRAS wild-type protein to KD value for KRAS (SPR)
[5] = ratio of KD value for GDP-bound NRAS wild-type protein to KD value for KRAS (SPR)
[6] = ratio of the KD value with respect to HRAS wild-type protein to the KD value with respect to KRAS
[7] = ratio of the KD value with respect to GDP-bound NRAS wild-type protein to the KD value with respect to KRAS

Row | pIC50 [1] | SMILES | HRAS /KRAS [2, 4] | NRAS /KRAS [3, 5] | HRAS /KRAS [2, 6] | NRAS /KRAS [3, 7] | HRAS /KRAS ([2]; ratio of KD for HRAS wild-type protein to KD for KRAS) | NRAS /KRAS ([3]; ratio of KD for GDP-bound NRAS wild-type protein to KD for KRAS)
1 | 7.20 | CCCN1C(=O)CN(C)C(=O)CN(C)C(=O)[C@H]([C@@H](C)CC)NC(=O)[C@H](CC(C)C)N(C)C(=O)C[C@@H](C(=O)N2CCOCC2)N(C)C(=O)[C@H](C2CCCC2)N(C)C(=O)C2(CCC2)NC(=O)[C@@H]2CCCN2C(=O)[C@H](CCc2ccc(C(F)(F)F)c(Cl)c2)NC(=O)CN(C)C(=O)[C@@H]1COC1CCC1 [PP1816] ([NMeL]I[Sar][Sar][X13][Sar][hPhe(3-Cl-4-CF3)]P[Ac4c][NMeGly(cPent)][NMeD]-Morpholide; lactam N-11) | C (A compound having a KD ratio of 0.1 or more and less than 3 is denoted as C) | B (a compound having 3 or more and less than 10 is denoted as B) | – | – | – | –
2 | 8.34 | CCCN1C(=O)CN(C)C(=O)CN(CC)C(=O)[C@H]([C@@H](C)CC)NC(=O)[C@H](CC(C)C)N(C)C(=O)C[C@@H](C(=O)N(C)C)N(C)C(=O)[C@H](C2CCCC2)N(C)C(=O)C2(CCC2)NC(=O)[C@@H]2C[C@@H](OCC)CN2C(=O)[C@H](CCc2ccc(C(F)(F)F)c(Cl)c2)NC(=O)CN(C)C(=O)[C@@H]1Cc1ccc(C(F)(F)F)cc1 [PP0428] ([NMeL]I[NEtG][Sar][NPrPhe(4-CF3)][Sar][hPhe(3-Cl-4-CF3)][Hyp](Et)[Ac4c][NMeGly(cPent)][NMeD]-NMe2; lactam N-11) | – | – | C (A compound having a KD ratio of 0.1 or more and less than 3 is denoted as C) | B (a compound having 3 or more and less than 10 is denoted as B) | – | –
3 | 7.87 | CCCN1C(=O)CN(CC)C(=O)CNC(=O)[C@H]([C@@H](C)CC)NC(=O)[C@H](CC(C)C)N(C)C(=O)C[C@@H](C(=O)N2CCOCC2)N(C)C(=O)[C@H](C2CCCC2)N(C)C(=O)C2(CCCC2)NC(=O)[C@@H]2CCCN2C(=O)[C@H](CCc2ccc(C(F)(F)F)c(Cl)c2)NC(=O)CN(C)C(=O)[C@@H]1Cc1ccc(C(F)(F)F)cc1 [PP1968] ([NMeL]IG[NEtG][NPrPhe(4-CF3)][Sar][hPhe(3-Cl-4-CF3)]P[Ac5c][NMeGly(cPent)][NMeD]-Morpholide; lactam N-11) | – | – | C (A compound having a KD ratio of 0.1 or more and less than 3 is denoted as C) | C (A compound having a KD ratio of 0.1 or more and less than 3 is denoted as C) | – | –
4 | 7.31 | CCO[C@@H]1C[C@H]2C(=O)NC3(CCC3)C(=O)N(C)[C@@H](C3CCCC3)C(=O)N(C)[C@H](C(=O)N(C)C)CC(=O)N(C)[C@@H](CC3CCCC3)C(=O)N[C@@H]([C@@H](C)CC)C(=O)N(C)CC(=O)N(C)[C@H]3C/C=C\CCN(C3=O)[C@@H](Cc3ccc(C)cc3)C(=O)N(C)CC(=O)N[C@@H](CCc3cc(F)c(CC)c(OC)c3)C(=O)N2C1 [PP2674] | – | – | – | – | A (a compound having 10 or more and less than 20 is denoted as A) | A (a compound having 10 or more and less than 20 is denoted as A)
5 | 7.06 | CCO[C@@H]1C[C@H]2C(=O)NC3(CC(C)(C)C3)C(=O)N(C)[C@@H](C(CC)CC)C(=O)N3CCC[C@@H]3CC(=O)N(C)[C@@H](CC3CC3)C(=O)N[C@@H]([C@@H](C)CC)C(=O)N(C)CC(=O)N(C)[C@H]3C/C=C\CCN(C3=O)[C@@H](Cc3ccc(C(F)(F)F)cc3)C(=O)N(C)CC(=O)N[C@@H](CCc3cc(F)c(C(F)(F)F)c(F)c3)C(=O)N2C1 [PP1610] | A (a compound having 10 or more and less than 20 is denoted as A) | A (a compound having 10 or more and less than 20 is denoted as A) | – | – | – | –
6 | 9.10 | CCCN1C(=O)CN(C)C(=O)CNC(=O)[C@H]([C@@H](C)CC)NC(=O)[C@H](CC(C)C)N(C)C(=O)C[C@@H](C(=O)N2CCOCC2)N(C)C(=O)[C@H](C2CCCC2)N(C)C(=O)C2(CCC2)NC(=O)[C@@H]2CC(F)(F)CN2C(=O)[C@H](CCc2ccc(C(F)(F)F)c(Cl)c2)NC(=O)CN(C)C(=O)[C@@H]1Cc1ccc(C(F)(F)F)cc1 [PP0395] ([NMeL]IG[Sar][NPrPhe(4-CF3)][Sar][hPhe(3-Cl-4-CF3)][Pro(4,4-F2)][Ac4c][NMeGly(cPent)][NMeD]-Morpholide; lactam N-11) | – | – | C (A compound having a KD ratio of 0.1 or more and less than 3 is denoted as C) | B (a compound having 3 or more and less than 10 is denoted as B) | – | –
7 | 7.87 | CCO[C@@H]1C[C@H]2C(=O)NC3(CC(C)(C)C3)C(=O)N(C)[C@@H](C3CCCC3)C(=O)N(C)[C@H](C(=O)N(C)C)CC(=O)N(CC)[C@@H](CC(C)C)C(=O)N[C@@H]([C@@H](C)CC)C(=O)NCC(=O)N(C)[C@H]3C/C=C\CCN(C3=O)[C@@H](Cc3ccc(C(F)(F)F)cc3)C(=O)N(C)CC(=O)N[C@@H](CCc3cc(F)c(C(F)(F)F)c(F)c3)C(=O)N2C1 [PP1772] | B (a compound having 3 or more and less than 10 is denoted as B) | B (a compound having 3 or more and less than 10 is denoted as B) | – | – | – | –
8 | 7.08 | CC(C)C[C@H]1C(=O)N[C@@H](C2CCC2)C(=O)N(C)CC(=O)N(C)[C@H]2CCCCCN(C2=O)[C@@H](Cc2ccc(C(F)(F)F)cc2)C(=O)N(C)CC(=O)N[C@@H](CCc2cc(F)c(C(F)(F)F)c(F)c2)C(=O)N2CCC[C@H]2C(=O)NC2(CCCC2)C(=O)N(C)[C@@H](C2CCCC2)C(=O)N(C)[C@H](C(=O)N2CCOCC2)CC(=O)N1C [PP0522] | – | – | B (a compound having 3 or more and less than 10 is denoted as B) | B (a compound having 3 or more and less than 10 is denoted as B) | – | –
